According to patent US20070026465A1, “Method for detecting GAD65 autoreactive T cells newly diagnosed type1 diabetic patients and in the prediabetic period” (priority 2005, published 2007):
Where “and” joins values, the source holds several entries; their conditions need not be identical. Equal values may be shown once.

Tests used:
Type in all cases: cell-based, human
[1] = test system: PBMC of healthy control individuals; test: GAD65 HLA class I tetramer staining and flow cytometry of stimulated PBMC, healthy controls; set-up: % CD3+/CD8+/GAD65 reactive T cells, average / % CD3+/CD8+/GAD65 reactive T cells: concentration or dose not given beside the values
[2] = test system: PBMC of newly diagnosed T1D patients; test: GAD65 HLA class I tetramer staining and flow cytometry of stimulated PBMC, T1D patients; set-up: % CD3+/CD8+/GAD65 reactive T cells, average / % CD3+/CD8+/GAD65 reactive T cells: concentration or dose not given beside the values
[3] = test system: PBMC of healthy normal controls; test: T cell activation (CD69 staining) in stimulated PBMC, healthy controls; conditions: GAD65 peptide treated PBMC, day 6;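 further: GAD65 peptide 10 to 30 µg/ml in culture medium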
Procedure: (§1) PBMC were separated from 5-10 ml heparinized peripheral blood by Ficoll gradient centrifugation (Histopaque, Sigma-Aldrich, St. Luis, Mo., USA). […] This washing step was introduced in the method to remove the GAD65 peptide and therefore reduce the risk of aspecificities in the subsequent procedure of tetramer binding. […] Cells were then harvested and processed for tetramer staining and flow cytometric analysis.
(§2) On day 4 or day 6 from the beginning of culture, 1×10^6 cells were allocated for staining. They were washed by centrifugation at 1500 rpm for 5 min at room temperature in wash buffer [0.1% sodium azide, 2% FBS in PBS] then resuspended in the residual volume (approximately 50 μl). 1 μl of phycoerythrin (PE) labelled GAD65 tetramer was added and incubated in ice for 30^+ min in the dark. […] Cells were then washed twice in phosphate buffer and their staining achieved using a Beckton Dickinson FACSCalibur flow cytometer and analysed with the CellQuest software program. T cell activation was evaluated by staining cells with […] in different multiple staining experiments. […]

[4] = test system: PBMC of newly-diagnosed T1D patients; test: T cell activation (CD69 staining) in stimulated PBMC, T1D patients; conditions: GAD65 peptide treated PBMC, day 6;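 further: GAD65 peptide 10 to 30 µg/ml in culture medium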
Procedure: as §1, §2

[5] = test system: CD8+/GAD65 reactive lymphocytes of a T1D patient; test: Early-late apoptosis (Annexin V / propidium iodide) in peptide stimulated PBMC
Procedure: At day 4 and day 6 from the beginning of the culture, 1×10^6 cells stimulated with the GAD65 peptide according to the above mentioned protocols were washed in the same washing phosphate buffer as described above and resuspended in the residual volume of approximately 50 μl. 1 μl PE-labelled GAD65 tetramer was used per staining procedure. Cells were then incubated with biotinylated anti-human CD8 MoAb (1:10 dilution, Becton Dickinson) in ice, for at least 30 min, in the dark. They were then washed with washing buffer by centrifugation at 1500 rpm for 5 min at room temperature. 5 μl of streptavidin-(Cy5) conjugate was then added for 30 min at room temperature, in the dark. Cells were then washed in ice cold PBS (2% FBS) by centrifugation at 1500 rpm for 5 min at room temperature. Cell pellet was then suspended in 500 μl of phosphate buffer. 10 μl of cold media binding reagent (Calbiochem, San Diego, Calif., USA) and 1.25 μl of Annexin V-FITC conjugate (Calbiochem) were added according to manufacturer's instructions. […] Staining was then immediately achieved and analysed by flow cytometry. […] Cells were evaluated as necrotic when stained with propidium iodide but negative for Annexin V, cells were evaluated as late apoptotic when propidium iodide positive and binding Annexin V, early apoptotic when propidium iodide negative and Annexin V positive and viable when negative for both stainings.

VMNILLQYV [GAD65 peptide]
increase of the population of CD3+/CD8+/GAD65 reactive T cells (specificity of the response) [1]: no significant increase
% CD3+/CD8+/GAD65 reactive T cells, average ([1]; GAD65-treated PBMC, average of 22 normal controls, day 6): 0.9%
% CD3+/CD8+/GAD65 reactive T cells ([1]; GAD65-treated PBMC, individual normal controls, day 6 of culture): 0.37% and 0.42% and 2% and 0.09% and 0.97% and 0.6% and 8% and 1.21% and 0.25% and 0.9% and 1.03% and 0.49% and 0.23% (2×) and 0.03% and 0.21% and 0.11% and 0.13% and 0.14% and 0.17% and 0.86% and 0.57%
percentage of CD8+/GAD65 reactive lymphocytes ([1]; healthy control donor, day 4, after GAD65 peptide stimulation (FIG. 9 B-C)): very low
% CD3+/CD8+/GAD65 reactive T cells, average ([2]; GAD65 treated PBMC, average of 22 T1D patients, day 6): 30.0%
% CD3+/CD8+/GAD65 reactive T cells ([2]; GAD65 treated PBMC, individual T1D patients, day 6 of culture): 73% and 17% and 12.5% and 14.08% and 1% (2×) and 19% and 98% and 85% and 68% and 22% and 70% and 82% and 21% and 1.35% and 2.64% and 0.81% and 3.19% and 58% and 2.59% and 2.28% and 6.39%
Dot Plot pattern of CD8 expression of CD8+ GAD65 reactive T cells ([2]; T1D patients after GAD65 peptide stimulation, not seen in normal controls): peculiar pattern of low CD8 expression
percentage of CD3+/CD8+/GAD65 reactive T cells compared to IL-2 stimulation ([2]; one T1D patient non-responding at day 6, 2 days peptide then 2 days IL-2, analysis at day 4 (FIG. 8)): significant increase
% CD69+/CD3+/CD8+ T cells, average ([3]; average of normal controls): 12.9%
% CD69+/CD3+/CD8+ T cells ([3]; individual normal controls): 2.1% and 0.75% and 13.51% and 17% and 26% and 13.4% and 18% (2×) and 19% and 1.7%
% CD69/CD3/CD8 positive T cells, average ([4]; average of T1D patients): 18.9%
% CD69/CD3/CD8 positive T cells ([4]; individual T1D patients): 13.5% and 10.94% and 24% and 39% and 28% (2×) and 42% and 18% and 4.63% and 1.5% and 3.2% and 20% and 9.87% and 22%
apoptosis (Annexin V) of CD8+/GAD65 reactive lymphocytes ([5]; T1D patient, day 4 of culture with the GAD65 peptide (FIG. 9 E-F)): shows signs of apoptosis
population of Annexin V positive cells ([5]; same samples, day 6 of GAD65 peptide treatment (FIG. 10)): no longer detectable
